Experimental data taken from patent US5780642A, “Imidazole derivatives as therapeutic agents” (KNOLL Aktiengesellschaft, priority 1993, dated 1998).
pIC50: −log10 of the molar value. Counter-ions that a name gives are not always drawn. Like-named read-outs stand apart in the source and are kept apart here.

Tests used:
[1] = tested on: Zymosan Stimulated Macrophages (arachidonic acid release); assay: Test A: Inhibition of Arachidonic Acid Release from Zymosan Stimulated Macrophages; format: cell-based, mouse (female MF1 mice); conditions: Mus musculus, Macrophage, read-out: Test A IC50
Experimental: Test A was carried out in the following way:
Inhibition of Arachidonic Acid Release from Zymosan Stimulated Macrophages
Female MF1 mice (weighing 20 to 25 g) were killed using a rising concentration of CO2. The mice were laid on their backs and the abdomens wiped with 70% alcohol. The skin was pulled back, exposing the peritoneal wall. Medium A (5 ml) (see below) was injected into the peritoneal cavity of each mouse followed by approximately 1 ml of air using a 20 ml syringe and a 21G×40 mm needle in order to form a suspension of macrophage cells. The medium and cells were then removed using a 19G×40 mm needle. The resulting suspension was returned to a sterile beaker kept on ice. The extracts from all the mice were pooled and this pooled cell suspension was counted using a Coulter counter and adjusted to a final cell count of 1-1.3×10^6 cells/ml prior to labelling with [^3 H]-arachidonic acid. Typically five mice provided sufficient cells for each multiwell plate.
Sufficient [^3 H]-arachidonic acid in ethanol to give a final concentration of 1.6 μCi/ml (equivalent to 40 μCi/plate) was blown to dryness under nitrogen. The arachidonic acid was then resuspended in 1 or 2 ml of the cell suspension which was then mixed with the remainder of the cell suspension in a centrifuge bottle. The labelled cell suspension was then plated out into sterile plastic 96 flat-bottomed well plates (250 μl per well) and incubated overnight at 37° C. in a moist atmosphere of 5% CO2, 95% air.
The following day, non-adherent cells were removed by washing 3 times with sterile phosphate buffered saline (PBS). The adherent peritoneal macrophages were then cultured for a further 24 hours in the presence or absence of drugs, in medium B (see below) at 37° in a 5% CO2 atmosphere in order to measure the effects of drugs on the spontaneous release of arachidonic acid in the absence of stimulus. After this incubation, supernatants were removed to give media 1 and stored in sealed multi-well plates at 4° C. prior to scintillation counting. Drugs which potentiated spontaneous release of arachidonic acid (125% of controls) were deemed to be toxic at the concentration at which this phenomenon occurred. The supernatants were replaced by fresh medium C containing fresh drug and a stimulus. Three drugs were tested at six concentrations (100, 50, 20, 10, 5 and 1 μM) in replicates of four on each plate. The other wells contained controls consisting of a positive control (e.g. dexamethasone), medium (B) only and medium C only.
Incubation was then continued for a further 5 hours, whereupon the supernatants were collected to give media 2 and the adherent cells washed with PBS. The cells were then lysed with 100 μl of 0.1% TRITON® X100 in a 0.1% solution of bovine serum albumin in 0.9% saline and mechanically disrupted to give cell lysates. These supernatants (media 2) and cell lysates (Cells) were also stored in sealed multi-well plates at 4° C. prior to scintillation counting. 200 μl aliquots of media, or 100 μl aliquots of cells were counted using 2 ml of OPTIPHASE "HIGH SAFE" (Trademark of LKB) as scintillant.
The percentage of arachidonic acid released was calculated using the mean values for each group of 4 wells in the following equation. [formula]
The value for the arachidonic acid release in the absence of stimulus (spontaneous, cpm of media 2) from cells which had been exposed to neither stimulus nor drug was subtracted from all equivalent values (cpm media 2, stimulated with or without drug) to give the net stimulated release. The percentage inhibition of arachidonic acid release caused by a drug may then be calculated using the following equation. [formula]
Compounds of formula I were tested at six concentrations (100, 50, 20, 10, 5 and 1 μM) and IC50 values calculated. Compounds with IC50 values≤100 μM are considered to be active. Advantageous compounds have an IC50 value<50 μM.
Medium A (for peritoneal lavage) […]

[2] = tested on: Carrageenan-induced rat paw oedema; assay: Test B: Carrageenan-induced rat paw oedema test; format: in vivo; conditions: 100 mg/kg oral; active = 20% or greater inhibition of paw oedema in at least two out of three tests
Experimental: Test B was carried out in the following way: Carrageenan-induced rat paw oedema test Female rats, weight range 125-150 g were fasted overnight. One of the hind legs of each animal was marked with a line at the connection between the cuboid/navicular and calcaneus/talus bones. Groups of six rats were orally dosed at 10 ml/kg, in random order, with a given dose of the test compound given as a solution or suspension in 10% (w/v) aqueous acacia solution. One hour after dosing, 0.1 ml of 1% (w/v) sterile carrageenan λ in normal saline was injected deeply into the plantar surface of the marked hind foot of each rat. The volume of the foot (up to the marked line) was measured immediately after injection using duplicate water displacement readings. Three hours after injection the foot volume was measured again and the percentage increase in foot volume relative to the initial reading was calculated. The increase in foot volume (i.e. the degree of oedema) in drug treated animals when compared with that in the drug untreated control gave the degree of inhibition of paw oedema by the drug. Compounds were considered to be active in this test if they produced a 20% or greater inhibition of paw oedema in at least two out of three tests after oral dosing at 100 mg/kg. Statistical significance was assessed using the Student's t test for single dose studies and Dunnett's test for multiple dose studies. More advantageous compounds were active in both Tests A and B.

[3] = tested on: Carrageenan-induced pleurisy (migrating leukocytes); assay: Carrageenan-induced pleurisy in rats; format: in vivo; conditions: rat, p.o. at time of challenge and 24h and 48h thereafter
Experimental: The most advantageous compounds of formula I were active in Tests A and B and also in the following test. Carrageenan-induced pleurisy in rats was carried out as described by Ackerman et al. J. Pharmacol. Exp. Therap. 1980, 215, 588-595. Migrating leukocytes were harvested by lavage of the thoracic cavity 72h after injection of 0.3 ml 1% λcarrageenan in sterile isotonic saline. Test compounds were administered p.o. at the time of challenge and 24h and 48 h thereafter.

[4] = inhibition of arachidonic acid release, zymosan stimulated mouse peritoneal macrophages, tested at 100, 50, 20, 10, 5 and 1 μM, ≤100 μM considered active

Row | Structure (SMILES) | pIC50 [1, 4] | also measured
1 | Cl.Cl.Fc1ccc(OCCNCCCn2ccnc2)cc1 [Example 7, N-[2-(4-Fluorophenoxy)ethyl]-3-(imidazol-1-yl)propylamine dihydrochloride] | 4.41 | activity in Test B (inhibition of paw oedema) [2]: active
2 | CC(C)(CNCCCn1ccnc1)Oc1ccc(Cl)cc1 [Example 1, 2-(4-chlorophenoxy)-3'-(imidazol-1-yl)-2-methyldipropylamine] | 4.70 | activity in carrageenan-induced pleurisy at 10 mg/kg [3]: active
3 | CC(C)(NCC(O)Cn1ccnc1)c1ccc(Cl)cc1 (centres unmarked) [Example 43, 1-[1-(4-chlorophenyl)-1-methylethylamino]-3-(imidazol-1-yl)propan-2-ol] | 4.04 | activity in carrageenan-induced pleurisy at 3 mg/kg or lower [3]: active
4 | CC(C)(NCCc1c[nH]cn1)c1ccc(Cl)cc1 [Example 85, 1-(4-chlorophenyl)-2'-(imidazol-4(5)-yl)-1-methyldiethylamine] | 4.33 | activity in carrageenan-induced pleurisy at 10 mg/kg [3]: active
5 | CC(C)(NCCCn1ccnc1)c1ccc(CCNS(=O)(=O)c2ccccc2)cc1 [Example 56, N-[2-(4-{1-[3-(imidazol-1-yl)propylamino]-1-methylethyl}phenyl)ethyl]-benzenesulphonamide] |  | pIC50 [1]: 5.10; activity in carrageenan-induced pleurisy at 10 mg/kg [3]: active
6 | CCCCCCNC(=O)Cc1ccc(C(C)(C)NCCCn2ccnc2)cc1 [Example 29, N-Hexyl-4-{1-[3-(imidazol-1-yl)propylamino]-1-methylethyl}phenylacetamide] | 4.82 | activity in carrageenan-induced pleurisy at 10 mg/kg [3]: active
7 | CCC(CC)(NCCCn1cnc(CCNC(=O)c2ccccc2)c1)c1ccccc1 [Example 60, N-(2-{1-[3-(1-ethyl-1-phenylpropylamino)propyl]imidazol-4-yl}ethyl)benzamide] | 4.77 | activity in carrageenan-induced pleurisy at 3 mg/kg or lower [3]: active
8 | CCCCCCNC(=O)Cc1ccc(C(C)(C)NCC(O)Cn2ccnc2)cc1 (centres unmarked) [Example 47, N-Hexyl-4-{1-[2-hydroxy-3-(imidazol-1-yl)propylamino]-1-methylethyl}phenylacetamide] | 4.19 | 
9 | CC(C)(NCCCn1ccnc1)c1ccc(CC(=O)NCc2ccc(Cl)cc2)cc1 [Example 30, N-(4-Chlorobenzyl)-4-{1-[3-(imidazol-1-yl)propylamino]-1-methylethyl}phenylacetamide] | 4.70 | 
10 | CCCCS(=O)(=O)Oc1ccc(C(C)(C)NCCCn2ccnc2)cc1 [Example 72, 4-{1-[3-(imidazol-1-yl)propylamino]-1-methylethyl}phenyl 1-butanesulphonate] | 4.62 | 
11 | CCCOC(=O)c1ccc(C(C)(C)NCC(O)Cn2ccnc2)cc1 (centres unmarked) [Example 74, propyl 4-{1-[2-hydroxy-3-(imidazol-1-yl)propylamino]-1-methylethyl}benzoate] | 4.09 | 
12 | CC(C)(COc1ccc(C2=NCCS2)cc1)NCCCn1ccnc1 [Example 109, N-[1,1-dimethyl-2-[4-(4,5-dihydrothiazol-2-yl)phenoxy]ethyl}-3-(imidazol-1-yl)propylamine dimaleate] | 4.48 | 
13 | CC(C)(COc1ccc(Cl)cc1)NCC(O)Cn1ccnc1 (centres unmarked) [Example 52, 1-[2-(4-Chlorophenoxy)-1,1-dimethylethylamino]-3-(imidazol-1-yl)propan-2-ol] | 4.64 | 
14 | CC(C)(NCCCc1c[nH]cn1)c1ccc(Cl)cc1 [Example 84, N-[1-(4-chlorophenyl)-1-methylethyl]-3-(imidazol-4(5)-yl)propylamine] | 4.82 | 
15 | CC1(C)COC(c2ccc(C(C)(C)NCC(O)Cn3ccnc3)cc2)=N1 (centres unmarked) [Example 49, 1-{1-[4-(4,4-Dimethyl-2-oxazolin-2-yl)phenyl]-1-methylethylamino}-3-(imidazol-1-yl)propan-2-ol hemihydrate] | 4.15 | 
16 | CC(C)(NCCCn1ccnc1)c1ccc(C(=O)NC2CCCCC2)cc1 [Example 28, N-Cyclohexyl-4-{1-[3-(imidazol-1-yl)propylamino]-1-methylethyl}benzamide] | 4.60 | 
17 | CC(C)(CNCCCn1ccnc1)Sc1ccc(Cl)cc1 [Example 18, 2-(4-Chlorophenylthio)-3'-(imidazol-1-yl)-2-methyldipropylamine dihydrochloride] | 4.70 | 
18 | CC(C)(COC(=O)c1ccccc1)NCCCn1ccnc1 [Example 78, 2-[3-(imidazol-1-yl)propylamino]-2,2-dimethylethyl benzoate dihydrochloride] | 4.04 | 
19 | CCCN(CCC)S(=O)(=O)c1ccc(C(C)(C)NCCCn2ccnc2)cc1 [Example 26, 4-{1-[3-(Imidazol-1-yl)propylamino]-1-methylethyl}-N,N-dipropylbenzenesulphonamide] | 5.00 | 
20 | CC(C)(NCCCn1ccnc1C(O)c1ccccc1)c1ccc(Cl)cc1 (stereo not drawn) [Example 23, α-(1-{3-[1-(4-Chlorophenyl)-1-methylethylamino]propyl}-imidazol-2-yl)benzyl alcohol] | 5.15 | 
21 | CC(C)(COc1ccccc1)NCCCn1cnc(CCNS(=O)(=O)c2ccccc2)c1 [Example 77, N-(2-{1-[3-(1,1-dimethyl-2-phenoxyethylamino)propyl]imidazol-4-yl}ethyl]benzene-sulphonamide] | 4.92 | 
22 | Cc1cc(SCC(C)(C)NCCCn2ccnc2)c(C)cc1Cl [Example 20, N-[2-(4-Chloro-2,5-xylylthio)-1,1-dimethylethyl]-3-(imidazol-1-yl)propylamine dihydrochloride] | 5.40 | 
23 | CC(C)(Cc1ccc(Cl)cc1)NCCCn1ccnc1 [Example 21, N-[2-(4-Chlorophenyl)-1,1-dimethylethyl]-3-(imidazol-1-yl)propylamine dihydrochloride] |  | pIC50 [1]: 5.10
24 | CCC(CC)(NCCCn1cnc(CCNC(=O)c2ccc(C#N)cc2)c1)c1ccccc1 [Example 62, 4-cyano-N-(2-{1-[3-(1-ethyl-1-phenylpropylamino)propyl]imidazol-4-yl}ethyl)benzamide] | 4.85 | 
25 | Cc1cc(S(=O)(=O)CC(C)(C)NCCCn2ccnc2)c(C)cc1Cl [Example 69, N-[2-(4-chloro-2,5-xylylsulphonyl)-1,1-dimethylethyl]-3-(imidazol-1-yl)propylamine dihydrochloride hemihydrate] | 4.30 | 
